# In PMC12434715 (Biochemical pharmacology, 2018):
# Where two headings read alike, the source gives them in different places.
# Columns and labels:
# [1] = Stability of 12-sulfoxynevirapine in buffer by reversed-phase HPLC; format: physicochemical; conditions: up to 2 months
# SULT2B1 = target: T1, SULT2B1 (Homo sapiens, UniProt O00204); experiment: Sulfonation by cytosol of HEK293/SULT2B1-overexpressing cells; format: in vitro ADME; conditions: 250 μM [14C]triclosan, 0.5 mg cytosolic protein, 500 μM PAPS, pH 7.2, 37 °C, 2 h
# T1 sequence (O00204 1-365): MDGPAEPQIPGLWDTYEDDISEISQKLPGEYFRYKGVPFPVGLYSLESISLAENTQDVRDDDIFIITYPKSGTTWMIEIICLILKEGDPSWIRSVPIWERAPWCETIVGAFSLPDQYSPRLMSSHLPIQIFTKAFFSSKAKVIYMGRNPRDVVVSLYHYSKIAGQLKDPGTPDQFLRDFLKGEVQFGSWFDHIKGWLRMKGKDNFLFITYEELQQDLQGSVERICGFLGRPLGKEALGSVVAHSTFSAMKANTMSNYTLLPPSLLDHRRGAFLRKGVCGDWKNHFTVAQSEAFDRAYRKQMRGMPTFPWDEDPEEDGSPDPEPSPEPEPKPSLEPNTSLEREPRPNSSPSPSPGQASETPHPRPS
# SULT6B1 = target: T2, SULT6B1 (Homo sapiens, UniProt Q6IMI4); experiment: Sulfonation by cytosol of HEK293/SULT6B1-overexpressing cells; format: in vitro ADME; conditions: 250 μM [14C]triclosan, 0.5 mg cytosolic protein, 500 μM PAPS, pH 7.2, 37 °C, 2 h
# T2 sequence (Q6IMI4 1-303): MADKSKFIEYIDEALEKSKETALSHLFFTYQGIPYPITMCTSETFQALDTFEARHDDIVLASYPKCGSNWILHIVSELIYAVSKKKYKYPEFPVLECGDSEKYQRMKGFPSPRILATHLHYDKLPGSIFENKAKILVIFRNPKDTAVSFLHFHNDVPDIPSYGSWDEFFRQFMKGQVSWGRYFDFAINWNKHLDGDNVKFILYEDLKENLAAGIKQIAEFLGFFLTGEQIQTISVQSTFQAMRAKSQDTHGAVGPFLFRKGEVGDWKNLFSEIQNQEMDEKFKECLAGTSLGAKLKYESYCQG
# SULT4A1 = target: T3, SULT4A1 (Homo sapiens, UniProt Q9BR01); experiment: Sulfonation by cytosol of HEK293/SULT4A1-overexpressing cells; format: in vitro ADME; conditions: 250 μM [14C]triclosan, 0.5 mg cytosolic protein, 500 μM PAPS, pH 7.2, 37 °C, 2 h
# T3 sequence (Q9BR01 1-284): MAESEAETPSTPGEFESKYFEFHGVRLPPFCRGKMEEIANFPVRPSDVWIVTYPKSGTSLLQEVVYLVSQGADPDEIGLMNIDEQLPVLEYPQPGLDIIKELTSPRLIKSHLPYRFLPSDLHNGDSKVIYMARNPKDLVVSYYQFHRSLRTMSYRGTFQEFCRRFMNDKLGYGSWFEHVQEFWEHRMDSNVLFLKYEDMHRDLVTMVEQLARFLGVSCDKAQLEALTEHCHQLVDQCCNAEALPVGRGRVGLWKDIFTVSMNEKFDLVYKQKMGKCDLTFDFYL
# SULT1C2 = SULT1C2 (Homo sapiens, UniProt O00338); experiment: Sulfonation by cytosol of HEK293/SULT1C2-overexpressing cells; format: in vitro ADME; conditions: 250 μM [14C]triclosan, 0.5 mg cytosolic protein, 500 μM PAPS, pH 7.2, 37 °C, 2 h
# Chain of SULT1C2 (O00338 whole entry): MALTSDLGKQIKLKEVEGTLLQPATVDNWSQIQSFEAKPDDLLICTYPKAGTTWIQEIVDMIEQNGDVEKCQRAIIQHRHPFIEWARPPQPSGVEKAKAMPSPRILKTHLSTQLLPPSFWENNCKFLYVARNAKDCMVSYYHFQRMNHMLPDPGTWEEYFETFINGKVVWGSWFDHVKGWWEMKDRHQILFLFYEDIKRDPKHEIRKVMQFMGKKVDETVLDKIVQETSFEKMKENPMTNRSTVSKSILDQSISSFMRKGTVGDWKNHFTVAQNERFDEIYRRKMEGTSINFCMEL
# [2] = target: T4, cytosols from TK6/SULT2A1 cells (Homo sapiens, UniProt Q06520); experiment: Sulfonation of triclosan by cytosols from TK6/SULT2A1 cells; format: in vitro ADME; conditions: not in TK6 and TK6/SULT vector cytosols
# T4 sequence (Q06520 1-285): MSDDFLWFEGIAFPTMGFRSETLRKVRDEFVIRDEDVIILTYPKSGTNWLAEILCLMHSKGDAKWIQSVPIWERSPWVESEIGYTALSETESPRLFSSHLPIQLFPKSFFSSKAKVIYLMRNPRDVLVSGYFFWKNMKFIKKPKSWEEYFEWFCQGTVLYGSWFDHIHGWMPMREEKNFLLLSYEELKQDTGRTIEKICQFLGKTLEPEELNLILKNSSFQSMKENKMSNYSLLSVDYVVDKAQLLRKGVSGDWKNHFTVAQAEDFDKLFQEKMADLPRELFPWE
# SULT1E1 [3] = target: T5, SULT1E1 (Homo sapiens, UniProt P49888); experiment: Inhibition of SULT1E1-catalyzed sulfonation of triclosan; format: biochemical; conditions: 10 μM pentachlorophenol, preliminary experiments
# T5 sequence (P49888 1-294): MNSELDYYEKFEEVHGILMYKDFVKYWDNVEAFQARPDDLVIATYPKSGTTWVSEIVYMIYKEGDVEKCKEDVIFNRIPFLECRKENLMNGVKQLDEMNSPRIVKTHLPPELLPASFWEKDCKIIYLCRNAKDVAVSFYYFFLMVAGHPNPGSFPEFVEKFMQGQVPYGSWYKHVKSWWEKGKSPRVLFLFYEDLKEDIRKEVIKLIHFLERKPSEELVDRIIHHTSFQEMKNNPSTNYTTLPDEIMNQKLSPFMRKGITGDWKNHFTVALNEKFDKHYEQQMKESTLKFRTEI
# SULT2A1 [4] = target: T6, SULT2A1 (Homo sapiens, UniProt Q06520); experiment: Inhibition of SULT2A1-catalyzed sulfonation of triclosan; format: biochemical; conditions: 10 μM pentachlorophenol, preliminary experiments
# T6 sequence (Q06520 1-285): T4 sequence (Q06520 1-285)
# TK6/SULT2A1 cells [5] = experiment: MTT assay of cell growth in TK6/SULT2A1 cells; conditions: for IC50: read-out: IC50 on cell growth
# TK6/SULT vector cells [6] = experiment: MTT assay of cell growth in TK6/SULT vector cells; conditions: for IC50: read-out: IC50 on cell growth
# TK6/SULT vector cells [7] = format: cell-based, human
# SULT1C4 [8] = target: T7, SULT1C4 (Homo sapiens, UniProt O75897)
# T7 sequence (O75897 whole entry): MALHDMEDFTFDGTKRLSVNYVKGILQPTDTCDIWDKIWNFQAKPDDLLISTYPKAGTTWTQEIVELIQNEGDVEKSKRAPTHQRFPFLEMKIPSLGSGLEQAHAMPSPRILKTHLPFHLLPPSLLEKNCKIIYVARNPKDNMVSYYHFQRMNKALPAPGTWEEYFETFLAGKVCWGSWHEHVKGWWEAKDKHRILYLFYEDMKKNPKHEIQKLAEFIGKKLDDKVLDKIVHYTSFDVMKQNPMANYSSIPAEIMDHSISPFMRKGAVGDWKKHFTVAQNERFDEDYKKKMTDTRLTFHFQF
# SULT1E1 [9] = target: T5, SULT1E1; experiment: Sulfonation by cytosol of HEK293/SULT1E1-overexpressing cells; conditions: SULT1E1 cytosol; 1 h at 37 °C; mean ± s.d., three experiments
# TK6/SULT vector cells [10] = conditions: 45 µM
# TK6/SULT2A1 cells [11] = conditions: 90 µM
# SULT2A1 [12] = target: T6, SULT2A1
# SULT1E1 [13] = target: T5, SULT1E1
# SULT1C4 [14] = target: T7, SULT1C4; experiment: Sulfonation by cytosol of HEK293/SULT1C4-overexpressing cells; conditions: SULT1C4 cytosol; 1 h at 37 °C; mean ± s.d., three experiments
# SULT1A1 [15] = target: T8, SULT1A1 (Homo sapiens, UniProt P50225); experiment: Sulfonation by cytosol of HEK293/SULT1A1-overexpressing cells; conditions: SULT1A1 cytosol; 1 h at 37 °C; mean ± s.d., three experiments
# T8 sequence (P50225 whole entry): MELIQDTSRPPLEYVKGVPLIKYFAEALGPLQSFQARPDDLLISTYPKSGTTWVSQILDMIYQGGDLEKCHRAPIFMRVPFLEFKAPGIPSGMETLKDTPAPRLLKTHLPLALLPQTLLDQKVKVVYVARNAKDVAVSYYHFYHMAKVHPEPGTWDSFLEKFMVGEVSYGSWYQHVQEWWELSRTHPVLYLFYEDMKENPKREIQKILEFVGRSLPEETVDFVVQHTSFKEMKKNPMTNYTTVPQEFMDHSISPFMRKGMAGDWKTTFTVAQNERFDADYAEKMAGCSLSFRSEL
# SULT1A1 [16] = target: T8, SULT1A1
# TK6 cells = experiment: MTT assay of cell growth in TK6 cells; format: cell-based, human; conditions: read-out: IC50 on cell growth
# [17] = Sulfonation activity of pooled human liver cytosols; conditions: Human liver cytosol; 1 h at 37 °C; mean ± s.d., three experiments
# [18] = system: immortalized normal liver THLE2 cells; conditions: 48 h exposure, ref [30]; cited from earlier work
# [19] = system: human hepatoma HepG2 cells; conditions: 48 h exposure, ref [30]; cited from earlier work
smiles,measurement,setting,value
O=C1Nc2c(COS(=O)(=O)O)ccnc2N(C2CC2)c2ncccc21 [12-Sulfoxynevirapine],Stability in buffer,"[1]; 50 mM Bis-Tris, pH 7.1, room temperature",stable
same,Stability in buffer,"[1]; 100 mM sodium phosphate, pH 7.2, room temperature",stable
"Oc1cc(Cl)ccc1Oc1ccc(Cl)cc1Cl [Triclosan, triclosan]",Sulfonation of triclosan,SULT2B1,46.6 ± 1.9 pmol min^−1 mg cytosolic protein^−1
same,Sulfonation of triclosan,SULT6B1,33.8 ± 1.0 pmol min^−1 mg cytosolic protein^−1
same,Sulfonation of triclosan,SULT4A1,50.4 ± 0.6 pmol min^−1 mg cytosolic protein^−1
same,Sulfonation of triclosan,SULT1C2,28.5 ± 0.2 pmol min^−1 mg cytosolic protein^−1
same,Sulfonation activity towards triclosan,[2],showed sulfonation activity
"Oc1c(Cl)c(Cl)c(Cl)c(Cl)c1Cl [Pentachlorophenol, pentachlorophenol]",Triclosan being sulfated in the presence of inhibitor,SULT1E1 [3],44%
same,Triclosan being sulfated in the presence of inhibitor,SULT2A1 [4],12%
same,Cytotoxicity of the SULT substrate alone,"TK6/SULT2A1 cells [5]; TK6/SULT2A1 cells, tested concentration (DHEA 5 μM, pentachlorophenol 10 μM), 48 h, MTT",not cytotoxic
same,Cytotoxicity of the SULT substrate alone,"TK6/SULT vector cells [6]; TK6/SULT vector cells, tested concentration (DHEA 5 μM, pentachlorophenol 10 μM), 48 h, MTT",not cytotoxic
O=C1Nc2c(CO)ccnc2N(C2CC2)c2ncccc21 [12-Hydroxynevirapine],Formation of 12-sulfoxynevirapine in treated cells,TK6/SULT vector cells [7],not detected
same,Km,SULT1C4 [8],260 ± 38.9 µM
same,Vmax,SULT1E1 [9],71.0 ± 2.8 pmol min^−1 cytosolic protein mg^−1
same,Cell viability,TK6/SULT vector cells [10],approximately 50%
same,Cell viability,TK6/SULT2A1 cells [11],approximately 50%
same,IC50,"TK6/SULT2A1 cells [5]; TK6/SULT2A1 cells, 48 h exposure, MTT assay",89.9 µM
same,Km,SULT2A1 [12],545 ± 68.5 µM
same,Km,SULT1E1 [13],216 ± 34 µM
same,Vmax,SULT1C4 [14],56.0 ± 2.2 pmol min^−1 cytosolic protein mg^−1
same,Vmax,SULT1A1 [15],71.2 ± 2.0 pmol min^−1 cytosolic protein mg^−1
same,IC50,"TK6/SULT vector cells [6]; TK6/SULT vector cells, 48 h exposure, MTT assay",45.1 µM
same,Km,SULT1A1 [16],787 ± 62.2 µM
same,IC50,"TK6 cells; TK6 cells, 48 h exposure, MTT assay",42.6 µM
same,Vmax,[17],71.0 ± 4.5 pmol min^−1 cytosolic protein mg^−1
"Cc1ccnc2c1NC(=O)c1cccnc1N2C1CC1 [Nevirapine, 11-cyclopropyl-5,11-dihydro-4-methyl-6H-dipyrido [3,2-b:2′,3′-e][1, 4]diazepin-6-one]",Concentration that inhibited cell growth,[18],approximately 1.0 mM
same,IC50,"TK6/SULT2A1 cells [5]; Homo sapiens, 48 h",~130 µM
same,IC50,"TK6/SULT vector cells [6]; Homo sapiens, 48 h",~130 µM
same,Concentration that inhibited cell growth,[19],approximately 1.0 mM
same,IC50,"TK6 cells; Homo sapiens, TK6, 48 h",~130 µM
